Calls of active or inactive are those of the source.
Columns and labels:
Estrogen receptor = molecular target: T1, Estrogen receptor (Homo sapiens, UniProt P03372); assay: ERα coactivator recruitment enhancers – biochemical, TR-FRET, ERα LBD, dose response (AID 737)
T1 sequence (P03372 whole entry): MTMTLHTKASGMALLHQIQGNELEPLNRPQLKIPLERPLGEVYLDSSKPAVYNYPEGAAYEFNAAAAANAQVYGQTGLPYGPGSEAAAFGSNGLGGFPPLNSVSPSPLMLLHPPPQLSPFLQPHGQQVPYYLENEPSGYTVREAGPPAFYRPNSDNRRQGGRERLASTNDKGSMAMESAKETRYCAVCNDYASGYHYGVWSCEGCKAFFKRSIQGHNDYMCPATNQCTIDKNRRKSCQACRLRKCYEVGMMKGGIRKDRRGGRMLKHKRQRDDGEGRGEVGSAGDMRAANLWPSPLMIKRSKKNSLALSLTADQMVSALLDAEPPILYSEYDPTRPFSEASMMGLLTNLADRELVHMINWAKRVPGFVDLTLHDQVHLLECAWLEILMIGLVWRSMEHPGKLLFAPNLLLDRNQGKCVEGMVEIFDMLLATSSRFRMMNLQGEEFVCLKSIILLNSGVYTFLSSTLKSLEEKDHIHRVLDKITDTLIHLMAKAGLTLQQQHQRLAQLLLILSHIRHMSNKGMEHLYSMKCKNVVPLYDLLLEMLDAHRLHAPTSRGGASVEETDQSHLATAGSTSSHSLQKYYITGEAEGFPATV

Caspase-3 = molecular target: T2, Caspase-3 (Homo sapiens, UniProt P42574); assay: activators of human procaspase-3 D3A mutant – biochemical, absorbance, PC-3 D3A mutant, counter-screen for dual procaspase-3/7 activator project, dose response (AID 504328)
T2 sequence (P42574 whole entry): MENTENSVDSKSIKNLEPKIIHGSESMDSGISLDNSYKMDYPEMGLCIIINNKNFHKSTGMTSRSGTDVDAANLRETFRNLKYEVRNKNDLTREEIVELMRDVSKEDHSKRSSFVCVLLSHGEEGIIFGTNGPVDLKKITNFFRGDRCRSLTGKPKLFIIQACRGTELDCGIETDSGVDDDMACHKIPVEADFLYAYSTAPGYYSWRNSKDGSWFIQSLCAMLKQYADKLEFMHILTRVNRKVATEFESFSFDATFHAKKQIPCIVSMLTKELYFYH

Caspase-7 = molecular target: T3, Caspase-7 (Homo sapiens, UniProt P55210); assay: potency of procaspase-7 enzyme activation – biochemical, absorbance, human, dual procaspase-3/-7 activator project, dose response (AID 504330)
T3 sequence (P55210 whole entry): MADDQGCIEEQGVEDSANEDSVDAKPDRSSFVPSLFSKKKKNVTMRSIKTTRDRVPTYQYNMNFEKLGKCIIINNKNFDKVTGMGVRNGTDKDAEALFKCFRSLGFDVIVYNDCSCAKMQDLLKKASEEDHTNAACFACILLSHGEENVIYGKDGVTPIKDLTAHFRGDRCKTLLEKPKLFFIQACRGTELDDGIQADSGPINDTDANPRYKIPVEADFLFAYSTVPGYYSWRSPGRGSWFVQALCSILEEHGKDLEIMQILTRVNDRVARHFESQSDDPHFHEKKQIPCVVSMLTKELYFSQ

[1] = A Cell Based Secondary Assay To Explore Cytotoxicity of Compounds that Sensitize Mycobacterium Tuberculosis to Beta-Lactam Antibiotics.; format: functional
[2] = molecular target: DNA dC->dU-editing enzyme APOBEC-3G (Homo sapiens, UniProt Q9HC16); assay: Dose Response confirmation of small molecule APOBEC3G DNA Deaminase Inhibitors via a fluorescence-based single-stranded DNA deaminase assay. [Related pubchem assays (depositor defined):AID493012, AID493028]; format: functional
Chain of DNA dC->dU-editing enzyme APOBEC-3G (Q9HC16 whole entry): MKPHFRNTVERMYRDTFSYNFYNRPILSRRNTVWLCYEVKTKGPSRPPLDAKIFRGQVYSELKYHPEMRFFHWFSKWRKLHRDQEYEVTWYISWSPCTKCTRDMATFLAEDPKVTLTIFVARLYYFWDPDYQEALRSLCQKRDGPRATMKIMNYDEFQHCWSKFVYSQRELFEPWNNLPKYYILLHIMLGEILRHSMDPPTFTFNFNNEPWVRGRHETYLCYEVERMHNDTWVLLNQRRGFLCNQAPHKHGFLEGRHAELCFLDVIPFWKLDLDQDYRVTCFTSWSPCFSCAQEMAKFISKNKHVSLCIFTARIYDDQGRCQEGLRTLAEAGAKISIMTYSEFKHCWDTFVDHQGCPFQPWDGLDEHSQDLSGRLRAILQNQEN

[3] = molecular target: Peroxisome proliferator-activated receptor gamma/Nuclear receptor coactivator 2 (Homo sapiens, UniProt P37231); format: functional;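 note: agonist potency for raising coactivator recruitment to the receptor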
[4] = molecular target: Peroxisome proliferator-activated receptor gamma/Nuclear receptor coactivator 1 (Homo sapiens, UniProt P37231); format: functional;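 note: agonist potency as compounds enhance coactivator SRC-1 recruitment to PPARgamma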
[5] = molecular target: Peroxisome proliferator-activated receptor gamma/Nuclear receptor coactivator 3 (Homo sapiens, UniProt P37231); format: functional;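 note: agonist potency for raising coactivator recruitment to the receptor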
[6] = molecular target: T4, Voltage-gated N-type calcium channel alpha-1B subunit/Amyloid beta A4 precursor protein-binding family A member 1 (Homo sapiens, UniProt Q00975+Q02410); format: protein assay
T4 sequence (Q00975 whole entry): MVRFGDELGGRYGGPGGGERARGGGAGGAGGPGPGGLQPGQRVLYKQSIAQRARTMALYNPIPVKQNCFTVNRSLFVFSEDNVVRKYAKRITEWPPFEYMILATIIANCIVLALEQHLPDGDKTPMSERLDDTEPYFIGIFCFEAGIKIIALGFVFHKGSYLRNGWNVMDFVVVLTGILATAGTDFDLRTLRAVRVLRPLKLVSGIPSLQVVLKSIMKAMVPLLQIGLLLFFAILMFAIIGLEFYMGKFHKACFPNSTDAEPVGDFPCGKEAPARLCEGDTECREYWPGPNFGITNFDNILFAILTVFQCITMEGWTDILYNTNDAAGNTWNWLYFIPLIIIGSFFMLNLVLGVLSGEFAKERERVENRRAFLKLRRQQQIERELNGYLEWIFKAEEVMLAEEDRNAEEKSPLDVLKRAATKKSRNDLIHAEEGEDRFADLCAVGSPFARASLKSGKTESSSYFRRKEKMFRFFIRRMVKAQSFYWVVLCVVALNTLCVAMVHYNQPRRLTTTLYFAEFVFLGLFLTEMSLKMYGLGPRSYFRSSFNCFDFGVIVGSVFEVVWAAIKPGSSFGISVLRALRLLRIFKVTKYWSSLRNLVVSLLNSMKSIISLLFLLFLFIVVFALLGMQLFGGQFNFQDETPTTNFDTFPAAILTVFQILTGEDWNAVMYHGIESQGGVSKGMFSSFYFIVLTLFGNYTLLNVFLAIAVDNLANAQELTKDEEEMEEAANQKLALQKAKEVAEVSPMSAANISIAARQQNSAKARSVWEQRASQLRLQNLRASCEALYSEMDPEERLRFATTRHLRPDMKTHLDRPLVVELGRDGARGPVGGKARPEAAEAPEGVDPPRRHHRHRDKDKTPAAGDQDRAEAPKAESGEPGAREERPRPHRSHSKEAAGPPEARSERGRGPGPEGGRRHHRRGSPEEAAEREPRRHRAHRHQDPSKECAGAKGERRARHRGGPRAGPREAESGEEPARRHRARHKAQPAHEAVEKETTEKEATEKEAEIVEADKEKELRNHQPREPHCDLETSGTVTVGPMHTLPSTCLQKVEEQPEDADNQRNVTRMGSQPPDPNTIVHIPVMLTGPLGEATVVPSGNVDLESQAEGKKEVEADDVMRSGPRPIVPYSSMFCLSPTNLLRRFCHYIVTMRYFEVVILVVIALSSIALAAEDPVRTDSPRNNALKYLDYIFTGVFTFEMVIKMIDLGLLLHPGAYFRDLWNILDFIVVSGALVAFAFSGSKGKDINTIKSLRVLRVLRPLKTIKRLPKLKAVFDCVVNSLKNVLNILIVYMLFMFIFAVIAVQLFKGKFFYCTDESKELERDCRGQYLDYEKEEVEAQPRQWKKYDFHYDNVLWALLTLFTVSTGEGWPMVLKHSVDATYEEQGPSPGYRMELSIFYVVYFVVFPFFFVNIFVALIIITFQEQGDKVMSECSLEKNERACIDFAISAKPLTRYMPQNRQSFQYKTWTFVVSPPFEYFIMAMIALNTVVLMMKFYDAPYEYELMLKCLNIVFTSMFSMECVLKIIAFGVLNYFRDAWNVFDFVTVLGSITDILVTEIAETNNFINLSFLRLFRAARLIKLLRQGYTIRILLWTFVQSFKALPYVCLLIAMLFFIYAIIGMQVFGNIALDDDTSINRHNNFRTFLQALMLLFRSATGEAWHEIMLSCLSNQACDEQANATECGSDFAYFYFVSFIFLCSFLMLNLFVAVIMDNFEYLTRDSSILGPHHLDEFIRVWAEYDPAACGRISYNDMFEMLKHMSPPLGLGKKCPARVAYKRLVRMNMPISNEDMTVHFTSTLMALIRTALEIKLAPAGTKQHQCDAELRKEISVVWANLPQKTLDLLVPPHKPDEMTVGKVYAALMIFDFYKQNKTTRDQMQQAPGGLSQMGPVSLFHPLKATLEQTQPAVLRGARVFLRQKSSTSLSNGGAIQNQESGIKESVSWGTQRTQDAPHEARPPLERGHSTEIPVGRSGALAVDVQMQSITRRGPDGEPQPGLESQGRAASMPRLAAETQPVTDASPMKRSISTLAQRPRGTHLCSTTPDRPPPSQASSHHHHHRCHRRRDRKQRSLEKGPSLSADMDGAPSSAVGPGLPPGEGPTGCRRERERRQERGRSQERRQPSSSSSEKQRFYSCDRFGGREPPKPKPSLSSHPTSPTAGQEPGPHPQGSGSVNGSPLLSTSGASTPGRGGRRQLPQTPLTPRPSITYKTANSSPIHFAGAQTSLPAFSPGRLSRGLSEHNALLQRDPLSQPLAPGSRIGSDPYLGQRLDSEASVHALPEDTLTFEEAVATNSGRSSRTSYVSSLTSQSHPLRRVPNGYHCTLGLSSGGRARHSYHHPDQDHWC
T4 sequence (Q02410 whole entry): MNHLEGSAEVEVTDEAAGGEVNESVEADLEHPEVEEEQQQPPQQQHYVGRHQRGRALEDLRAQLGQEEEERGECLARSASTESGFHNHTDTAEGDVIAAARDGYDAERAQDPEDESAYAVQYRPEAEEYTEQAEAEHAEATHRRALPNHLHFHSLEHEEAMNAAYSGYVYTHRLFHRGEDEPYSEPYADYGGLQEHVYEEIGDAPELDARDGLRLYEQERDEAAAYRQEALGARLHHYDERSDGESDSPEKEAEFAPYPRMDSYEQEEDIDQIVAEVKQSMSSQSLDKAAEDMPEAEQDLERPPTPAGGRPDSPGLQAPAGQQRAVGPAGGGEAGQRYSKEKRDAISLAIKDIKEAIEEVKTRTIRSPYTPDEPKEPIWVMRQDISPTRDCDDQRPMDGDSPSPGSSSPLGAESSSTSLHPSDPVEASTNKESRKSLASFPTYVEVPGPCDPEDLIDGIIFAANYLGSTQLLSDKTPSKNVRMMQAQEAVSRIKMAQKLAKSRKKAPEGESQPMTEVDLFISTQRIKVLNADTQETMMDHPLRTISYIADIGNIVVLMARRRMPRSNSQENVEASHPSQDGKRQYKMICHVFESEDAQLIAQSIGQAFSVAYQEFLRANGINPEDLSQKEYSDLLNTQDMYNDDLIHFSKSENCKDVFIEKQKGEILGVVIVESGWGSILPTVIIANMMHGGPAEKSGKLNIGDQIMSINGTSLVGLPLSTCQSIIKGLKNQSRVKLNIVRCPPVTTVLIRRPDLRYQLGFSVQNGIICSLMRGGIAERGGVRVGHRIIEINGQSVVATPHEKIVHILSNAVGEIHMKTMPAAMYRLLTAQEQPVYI

[7] = molecular target: T4, Voltage-gated N-type calcium channel alpha-1B subunit/Amyloid beta A4 precursor protein-binding family A member 1; format: protein assay; remark: listed apart in the source
Cytochrome P450 2D6 = Cytochrome P450 2D6 (Homo sapiens, UniProt P10635); assay: qHTS Assay for Inhibitors and Substrates of Cytochrome P450 2D6. [Related pubchem assays: 410 ]; format: ADME; conditions: read-out: Potency
Chain of Cytochrome P450 2D6 (P10635 whole entry): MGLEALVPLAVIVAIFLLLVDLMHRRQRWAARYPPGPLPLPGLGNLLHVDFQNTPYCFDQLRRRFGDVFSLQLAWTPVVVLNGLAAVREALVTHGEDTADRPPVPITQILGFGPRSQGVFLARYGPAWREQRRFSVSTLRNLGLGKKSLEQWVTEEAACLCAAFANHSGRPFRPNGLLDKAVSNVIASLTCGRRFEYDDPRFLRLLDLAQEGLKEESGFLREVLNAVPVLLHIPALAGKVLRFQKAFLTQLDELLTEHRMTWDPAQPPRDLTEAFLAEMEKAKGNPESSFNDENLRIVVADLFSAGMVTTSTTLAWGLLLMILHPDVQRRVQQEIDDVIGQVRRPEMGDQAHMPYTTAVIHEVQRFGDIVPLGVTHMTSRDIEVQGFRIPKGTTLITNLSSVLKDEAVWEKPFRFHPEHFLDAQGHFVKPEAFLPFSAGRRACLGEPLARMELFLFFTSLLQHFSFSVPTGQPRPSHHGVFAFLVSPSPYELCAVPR

[8] = molecular target: Glyceraldehyde-3-phosphate dehydrogenase (Homo sapiens, UniProt P04406)
[9] = molecular target: Alkaline phosphatase, placental type (Homo sapiens, UniProt P05187); assay: human placental alkaline phosphatase inhibition – biochemical, luminescence, confirmation (AID 1512); format: functional
Chain of Alkaline phosphatase, placental type (P05187 whole entry): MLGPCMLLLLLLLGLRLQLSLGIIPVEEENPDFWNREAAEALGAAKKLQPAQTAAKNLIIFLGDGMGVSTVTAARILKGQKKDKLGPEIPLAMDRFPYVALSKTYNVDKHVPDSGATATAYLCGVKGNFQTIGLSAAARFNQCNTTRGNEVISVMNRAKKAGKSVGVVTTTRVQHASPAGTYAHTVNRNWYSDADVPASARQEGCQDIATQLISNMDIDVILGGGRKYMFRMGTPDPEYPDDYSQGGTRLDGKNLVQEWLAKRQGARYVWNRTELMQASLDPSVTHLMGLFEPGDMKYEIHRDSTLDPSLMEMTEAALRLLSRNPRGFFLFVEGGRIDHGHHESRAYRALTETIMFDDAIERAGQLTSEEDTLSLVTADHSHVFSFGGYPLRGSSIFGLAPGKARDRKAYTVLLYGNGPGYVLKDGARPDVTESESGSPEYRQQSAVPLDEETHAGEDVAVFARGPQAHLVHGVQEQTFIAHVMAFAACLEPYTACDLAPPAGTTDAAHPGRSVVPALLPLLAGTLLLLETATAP

[10] = molecular target: T5, Alkaline phosphatase, tissue-nonspecific isozyme (Homo sapiens, UniProt P05186); assay: potency against alkaline phosphatase TNAP – biochemical, luminescent, dose response, SAR follow-up (AID 1056)
T5 sequence (P05186 whole entry): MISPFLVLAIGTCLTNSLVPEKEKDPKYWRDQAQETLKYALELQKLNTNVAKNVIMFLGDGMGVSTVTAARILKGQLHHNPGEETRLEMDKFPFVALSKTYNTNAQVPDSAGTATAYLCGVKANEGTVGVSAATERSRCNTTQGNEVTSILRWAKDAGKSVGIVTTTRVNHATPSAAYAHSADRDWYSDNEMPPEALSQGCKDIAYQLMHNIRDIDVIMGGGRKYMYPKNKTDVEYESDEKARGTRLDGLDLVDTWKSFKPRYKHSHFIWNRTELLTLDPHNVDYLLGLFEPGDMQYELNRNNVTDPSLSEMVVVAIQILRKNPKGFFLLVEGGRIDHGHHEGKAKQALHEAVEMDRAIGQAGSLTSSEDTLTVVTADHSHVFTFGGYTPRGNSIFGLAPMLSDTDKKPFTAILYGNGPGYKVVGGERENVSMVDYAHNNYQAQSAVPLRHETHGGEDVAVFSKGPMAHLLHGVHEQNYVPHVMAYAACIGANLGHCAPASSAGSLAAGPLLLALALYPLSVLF

HeLa = assay: Cytotoxicity counterscreen assay for transcriptional activators of heat shock protein 70 (Hsp70). [Related pubchem assays: 1203, 1252 ]; format: functional; conditions: Homo sapiens;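 note: cells exposed to compound for 16 hours before readout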
[11] = microbe, parasite or virus in culture; format: functional; conditions: Mycobacterium tuberculosis
[12] = Luminescence Cell-Based Dose Retest to Confirm Inhibitors of Cancer Stem Cells. [Related pubchem assays (depositor defined):AID2717, AID2721]; format: functional; conditions: Homo sapiens
[13] = viability loss in THP-1 monocytes – THP-1 cells, cytotoxicity control for Vif-APOBEC3G degradation inhibitor project, dose response (AID 1117359); format: functional; conditions: THP-1
[14] = molecular target: Neurotensin receptor type 1 (Homo sapiens, UniProt P30989); format: functional;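 note: Image-based confirmatory dose-response assay measuring agonist activity at NTR1; NTR1-expressing U2OS osteosarcoma cells imaged for beta-arrestin GFP spot formation; agonist potency where compounds increase beta-arrestin recruitment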
Cytochrome P450 3A4 = Cytochrome P450 3A4 (Homo sapiens, UniProt P08684); conditions: Potency;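 note: confirmatory qHTS run detecting inhibitors and substrates of CYP3A4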
[15] = molecular target: Delta-type opioid receptor (Homo sapiens, UniProt P41143); assay: SAR Analysis of Antagonists of the DOR Receptor using an Image-Based Assay - Set 3. [Related pubchem assays (depositor defined):AID1777, AID1785]; format: functional;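 note: U2OS cells expressing DOR1 and beta-arrestin GFP stimulated with 100 nM SNC80; imaging of GFP-tagged beta-arrestin moving into spots after receptor activation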
[16] = molecular target: T6, Kappa-type opioid receptor (Homo sapiens, UniProt P41145); assay: SAR analysis of small molecule antagonists of the kappa opioid receptor via a luminescent beta-arrestin assay - Set 3. [Related pubchem assays (depositor defined):AID1777, AID1778, AID1785, AID1786, AID1966, AID2133, AID2136, AID2285, AID2495]; format: functional
[17] = molecular target: T6, Kappa-type opioid receptor; assay: SAR analysis of Antagonists of the Kappa Opioid Receptor (KOR) using an Image-Based Assay - Set 3. [Related pubchem assays (depositor defined):AID1777, AID1785]; format: functional
Mu-type opioid receptor = Mu-type opioid receptor (Homo sapiens, UniProt P35372); assay: SAR Analysis of Antagonists of the MOR Receptor using an Image-Based Assay - Set 3. [Related pubchem assays (depositor defined):AID1777, AID1785, AID1786, AID1966, AID2133, AID2136, AID2284, AID2285, AID2420]; format: functional
[18] = HEK-293T viability loss after treatment – luminescence, T-cell screen hits, cytotoxicity control for TCR NF-kB inhibitor project, dose response (AID 489026); format: functional, cell-based;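 note: cells exposed to compound about 14 hours before the viability readout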
[19] = molecular target: DNA dC->dU-editing enzyme APOBEC-3A (Homo sapiens, UniProt P31941); assay: A3A deaminase inhibition for selectivity – biochemical, dose response (AID 504722); format: functional
Chain of DNA dC->dU-editing enzyme APOBEC-3A (P31941 whole entry): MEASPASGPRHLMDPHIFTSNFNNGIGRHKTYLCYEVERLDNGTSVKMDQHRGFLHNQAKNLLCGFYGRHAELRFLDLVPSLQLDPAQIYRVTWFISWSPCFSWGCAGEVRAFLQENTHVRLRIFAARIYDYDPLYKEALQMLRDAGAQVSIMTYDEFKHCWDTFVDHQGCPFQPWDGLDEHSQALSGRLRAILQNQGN

Large T antigen = Large T antigen (Simian virus 40, UniProt P03070); format: functional, Betapolyomavirus macacae;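 note: Confirmatory-stage PubChem screen for compounds that inhibit SV40 T antigen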
[20] = molecular target: T7, Short transient receptor potential channel 4 (Mus musculus, UniProt Q9QUQ5); assay: block of DAMGO-driven TRPC4 calcium entry – cell-based, HEK293 TRPC4/mu-opioid, Fluo-4 calcium, dose response (AID 434942); format: functional;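 note: potency of inhibitors blocking the TRPC4 calcium response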
T7 sequence (Q9QUQ5 whole entry): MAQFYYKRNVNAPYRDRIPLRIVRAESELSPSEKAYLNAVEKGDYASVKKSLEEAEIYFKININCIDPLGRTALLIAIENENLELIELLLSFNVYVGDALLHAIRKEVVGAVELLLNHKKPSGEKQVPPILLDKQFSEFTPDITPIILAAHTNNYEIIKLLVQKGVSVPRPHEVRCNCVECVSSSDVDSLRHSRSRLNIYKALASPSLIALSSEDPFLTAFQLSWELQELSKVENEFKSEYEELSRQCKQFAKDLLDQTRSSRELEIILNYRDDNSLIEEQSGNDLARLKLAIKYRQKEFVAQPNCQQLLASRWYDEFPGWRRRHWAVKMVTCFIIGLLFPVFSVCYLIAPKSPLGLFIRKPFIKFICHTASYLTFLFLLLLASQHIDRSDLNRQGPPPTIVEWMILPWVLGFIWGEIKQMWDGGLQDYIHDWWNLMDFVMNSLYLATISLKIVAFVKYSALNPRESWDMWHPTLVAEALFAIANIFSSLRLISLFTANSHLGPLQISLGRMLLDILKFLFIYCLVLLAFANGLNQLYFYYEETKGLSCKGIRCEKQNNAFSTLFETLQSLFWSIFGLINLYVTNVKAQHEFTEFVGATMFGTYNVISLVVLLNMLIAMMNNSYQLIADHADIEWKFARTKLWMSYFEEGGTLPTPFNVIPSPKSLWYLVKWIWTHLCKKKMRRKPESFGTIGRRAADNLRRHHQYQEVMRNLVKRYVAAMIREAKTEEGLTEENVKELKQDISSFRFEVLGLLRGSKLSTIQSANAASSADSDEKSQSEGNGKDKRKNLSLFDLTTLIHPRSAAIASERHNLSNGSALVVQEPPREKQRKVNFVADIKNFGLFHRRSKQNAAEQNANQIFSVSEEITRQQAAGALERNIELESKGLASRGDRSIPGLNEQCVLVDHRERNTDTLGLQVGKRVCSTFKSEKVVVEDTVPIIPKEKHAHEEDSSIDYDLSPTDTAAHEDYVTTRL

Compound: COc1nc(-c2ccc(Cl)cc2)ccc1-c1noc(-c2ccco2)n1
- EC50 (Estrogen receptor): 10.9 µM (active)

Compound: C=CCNC1=C(Cl)C(=O)N(c2cccc(Cl)c2Cl)C1=O
- EC50 (Caspase-3): > 85.3 µM (inactive)
- EC50 (Caspase-7): > 85.3 µM (inactive)

Compound: Cc1ccc(/C=C2/SC(=S)N(CC(=O)Nc3ncc(Cc4ccc(C)cc4)s3)C2=O)cc1
- CC50 [1]: 37.9 µM (active)

Compound: CCc1ccc(N2CSC3=C(C#N)C(c4cccs4)CC(=O)N3C2)cc1 (configuration not stated)
- IC50 [2]: 8.18 µM (active)
- EC50 [3]: 50.7 µM (not active)
- EC50 [4]: 63.3 µM (not active)
- EC50 [5]: 77.8 µM (not active)
- IC50 [6]: 13.1 µM (active)
- IC50 [7]: > 50 µM (inactive)

Compound: COC(=O)C/C=C1\c2ccccc2C(OC)C1C (configuration not stated)
- AC50 (Cytochrome P450 2D6): 0.0794 µM (inconclusive)

Compound: CC1(C)CC(=O)c2c(/C=C/c3ccccc3)n[nH]c2C1
- IC50 [8]: > 100 µM (not active)
- IC50 [9]: > 100 µM (inactive)
- IC50 [10]: > 100 µM (inactive)

Compound: O=C(NCC1COc2ccccc2O1)C1CCCN(S(=O)(=O)c2c[nH]cn2)C1 (configuration not stated)
- CC50 (HeLa): > 99 µM (not active)

Compound: CC(C)c1ccc(N2C(=O)NC(=O)/C(=C\C=C\c3ccco3)C2=O)cc1
- CC50 [11]: 23.8 µM (active)
- AC50 [12]: 1.23 µM (active)
- CC50 [13]: 37.8 µM (active)
- EC50 [14]: 19 µM (active)

Compound: O=C(O)CCn1ccnc1-c1ccccc1
- EC50 (Estrogen receptor): 12.5 µM (not active)

Compound: CC1Cc2c(-c3ccccc3)nc3c(c2CO1)CN(CCOc1ccccc1)CC3 (configuration not stated)
- AC50 (Cytochrome P450 3A4): 3.98 µM (inconclusive)
- AC50 (Cytochrome P450 2D6): 5.01 µM (inconclusive)

Compound: Cc1cccc(N2CCN(CCNC(=O)Cn3c(=O)c4cccn4c4cccnc43)CC2)c1C
- IC50 [15]: > 32 µM (inactive)
- IC50 [16]: > 20 µM (inactive)
- IC50 [17]: > 32 µM (inactive)
- IC50 (Mu-type opioid receptor): 6.33 µM (active)

Compound: CCn1ncc(/C=N/NC(=O)c2ccc3c(c2)c(C)c(C)n3Cc2ccccc2)c1C
- IC50 [9]: > 100 µM (inactive)

Compound: CCO[C@H]1OC(C(=O)NCc2nc3ccccc3[nH]2)=C[C@@H](C2CC2)[C@@H]1CCCO
- IC50 [18]: > 80 µM (inactive)

Compound: Cc1cc(-c2nnc(S)n2/N=C/c2cccc([N+](=O)[O-])c2)[nH]n1
- IC50 [2]: 3.68 µM (active)
- IC50 [19]: > 100 µM (inactive)

Compound: Cc1ccc(/C=N/n2c(S)nnc2-c2ccco2)cc1
- IC50 [2]: 3.02 µM (active)
- IC50 (Large T antigen): 33.6 µM (active)
- IC50 [19]: > 100 µM (inactive)

Compound: COc1ccc(/C=C/C(=O)NCC(=O)N/N=C/c2cc(Br)ccc2OCc2ccccc2)cc1
- CC50 [1]: > 40 µM (active)

Compound: Cc1ccn2c(-c3csc(NCc4ccco4)n3)c(C)nc2c1
- EC50 [20]: 1.5 µM (active)
- IC50 [6]: 8.87 µM (active)
- IC50 [7]: > 50 µM (inactive)

— ChEMBL document CHEMBL1201862, “PubChem BioAssay data set” (2004)
